Reference: patent US20080274892A1, “Novel Haloalkylsulfonanilide Derivative, Herbicide, and Method of Use Thereof” (priority 2005, published 2008)

Assays:
false pimpernel [1] = test: Test Example 1: herbicidal efficacy on rice paddy weeds pre-emergence; format: in vivo, Lindernia pyxidaria; conditions: 21 days
bulrush [2] = test: as above; format: in vivo, Scirpus juncoides; conditions: 21 days
barnyard glass = test: Test Example 2: herbicidal efficacy on rice paddy weeds post-emergence; format: in vivo, Echinochloa crus-galli; conditions: post-emergence, one leaf stage, 21 days after treatment
Procedure, shortened: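 Plastic pots of 75 cm^2 were filled with clay loam soil and sown with barnyard glass and bulrush seeds, then topped with 75 cm^3 soil containing false pimpernel seeds. The pots were flooded to 5 cm water depth and held in a hot house. Twenty-one days after treatment, herbicidal efficacy was graded against an untreated control.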

bulrush [3] = test: as above; format: in vivo, Scirpus juncoides; conditions: post-emergence, one leaf stage, 21 days after treatment
[4] = test system: paddy rice plant (cultivar: Nihonbare); test: Test Example 3: phytotoxicity test for transplanted paddy rice plant; format: in vivo; conditions: transplanted rice, 21 days after treatment
Procedure, shortened: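 Clay loam soil was placed in a 75 cm^2 plastic pot and flooded to a water depth of 5 cm. Two Nihonbare paddy rice plants at the two-leaf stage were transplanted 1 cm deep and grown in a hot house. After treatment, pots stayed in the hot house for 21 days, and phytotoxicity was then graded against an untreated control.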

false pimpernel [5] = test: Test Example 2: herbicidal efficacy on rice paddy weeds post-emergence; format: in vivo, Lindernia pyxidaria; conditions: post-emergence, one leaf stage, 21 days after treatment

| SMILES | False pimpernel pre (herbicidal efficacy grade) (false pimpernel [1]; dosage 300 g/ha) | Bulrush pre (herbicidal efficacy grade) (bulrush [2]; dosage 300 g/ha) | Burnyard grass post (herbicidal efficacy grade) (barnyard glass; dosage 300 g/ha) | Bulrush post (herbicidal efficacy grade) (bulrush [3]; dosage 300 g/ha) | Phytotoxicity to paddy rice ([4]; dosage 300 g/ha) | False pimpernel post (herbicidal efficacy grade) (false pimpernel [5]; dosage 300 g/ha) | other results |
| --- | --- | --- | --- | --- | --- | --- | --- |
| CCCCC1(C)CN(Cc2ccccc2N(C(=O)OC)S(=O)(=O)C(F)(F)F)C(=O)O1 (stereo not drawn) [Compound 1-128] |  |  |  |  |  |  | False pimpernel pre (herbicidal efficacy grade) (false pimpernel [1]; dosage 100 g/ha): 4 (90%-100% of herbicidal efficacy or phytotoxicity); Bulrush pre (herbicidal efficacy grade) (bulrush [2]; dosage 100 g/ha): 2 (40%-69% of herbicidal efficacy or phytotoxicity); Burnyard grass post (herbicidal efficacy grade) (barnyard glass; dosage 100 g/ha): 3 (70%-89% of herbicidal efficacy or phytotoxicity); Bulrush post (herbicidal efficacy grade) (bulrush [3]; dosage 100 g/ha): 3 (70%-89% of herbicidal efficacy or phytotoxicity); Phytotoxicity to paddy rice ([4]; dosage 100 g/ha as printed in the table line): 1 (1%-39% of herbicidal efficacy or phytotoxicity); False pimpernel post (herbicidal efficacy grade) (false pimpernel [5]; dosage 100 g/ha): 2 (40%-69% of herbicidal efficacy or phytotoxicity) |
| COCC1(C)CN(Cc2ccccc2NS(=O)(=O)C(F)(F)F)C(=O)O1 (stereo not drawn) [Compound 1-137] | 4 (90%-100% of herbicidal efficacy or phytotoxicity) | 4 (90%-100% of herbicidal efficacy or phytotoxicity) | 4 (90%-100% of herbicidal efficacy or phytotoxicity) | 4 (90%-100% of herbicidal efficacy or phytotoxicity) | 2 (40%-69% of herbicidal efficacy or phytotoxicity) | 4 (90%-100% of herbicidal efficacy or phytotoxicity) |  |
| COCC1(C)CN(Cc2ccccc2N(C(=O)OCC(C)C)S(=O)(=O)C(F)(F)F)C(=O)O1 (stereo not drawn) [Compound 1-138] |  |  |  |  |  |  | False pimpernel pre (herbicidal efficacy grade) (false pimpernel [1]; dosage 1000 g/ha): 4 (90%-100% of herbicidal efficacy or phytotoxicity); Bulrush pre (herbicidal efficacy grade) (bulrush [2]; dosage 1000 g/ha): 4 (90%-100% of herbicidal efficacy or phytotoxicity); Burnyard grass post (herbicidal efficacy grade) (barnyard glass; dosage 1000 g/ha): 4 (90%-100% of herbicidal efficacy or phytotoxicity); Bulrush post (herbicidal efficacy grade) (bulrush [3]; dosage 1000 g/ha): 4 (90%-100% of herbicidal efficacy or phytotoxicity); Phytotoxicity to paddy rice ([4]; dosage 1000 g/ha, treated 5 days after transplantation): 2 (40%-69% of herbicidal efficacy or phytotoxicity); False pimpernel post (herbicidal efficacy grade) (false pimpernel [5]; dosage 1000 g/ha): 4 (90%-100% of herbicidal efficacy or phytotoxicity) |
| Cc1c(Cl)ccc(OC(C)C(=O)N(c2ccccc2CN2CC(C)(C)OC2=O)S(=O)(=O)C(F)(F)F)c1Cl (stereo not drawn) [Compound 1-139] | 4 (90%-100% of herbicidal efficacy or phytotoxicity) | 4 (90%-100% of herbicidal efficacy or phytotoxicity) | 3 (70%-89% of herbicidal efficacy or phytotoxicity) | 4 (90%-100% of herbicidal efficacy or phytotoxicity) | 3 (70%-89% of herbicidal efficacy or phytotoxicity) | 4 (90%-100% of herbicidal efficacy or phytotoxicity) |  |
| CC1(c2ccccc2)CN(Cc2ccccc2NS(=O)(=O)C(F)(F)F)C(=O)O1 (stereo not drawn) [Compound 1-140] | 4 (90%-100% of herbicidal efficacy or phytotoxicity) | 4 (90%-100% of herbicidal efficacy or phytotoxicity) | 2 (40%-69% of herbicidal efficacy or phytotoxicity) | 4 (90%-100% of herbicidal efficacy or phytotoxicity) | 1 (1%-39% of herbicidal efficacy or phytotoxicity) | 4 (90%-100% of herbicidal efficacy or phytotoxicity) |  |
| CC1(C2CCCCC2)CN(Cc2ccccc2NS(=O)(=O)C(F)(F)F)C(=O)O1 (stereo not drawn) [Compound 1-154] | 4 (90%-100% of herbicidal efficacy or phytotoxicity) | 4 (90%-100% of herbicidal efficacy or phytotoxicity) | 1 (1%-39% of herbicidal efficacy or phytotoxicity) | 4 (90%-100% of herbicidal efficacy or phytotoxicity) | 1 (1%-39% of herbicidal efficacy or phytotoxicity) | 4 (90%-100% of herbicidal efficacy or phytotoxicity) |  |
